Laboratory results as given in patent US20160031796A1, “ANTIMUSCARINIC COMPOUND HAVING A LOW CONTENT OF IMPURITIES” (Dipharma Francis S.r.l., priority 2014, published 2016).
Structures can show the parent of a compound that is named as a salt.

Key:
[1] = Fesoterodine fumarate obtained as disclosed in EP 2 251 318 (prior art); cited from earlier work
[2] = stability studies of Fesoterodine fumarate samples under various temperature and humidity conditions, HPLC analysis; format: physicochemical
From the text: Various samples of Fesoterodine fumarate salt of formula (I) have been taken from a batch of product, obtained using the process of the present invention, having a HPLC purity exceeding 99.8% and a content of the impurities of formulas (II), (III), (IV), (V), (VI) or (VII) of less than 0.10%, calculated as HPLC Area %, and completely free of impurities of formula (VIII) and (IX). Some of the samples taken were also micronized to reduce the particle size, both the samples directly taken from the sample batch and the micronized samples have been subjected to stability studies under various temperature and humidity conditions for up to 90 days.
An example of the conditions used in the stability studies were 40° C. with 75% relative humidity and 25° C. with 60% relative humidity.

formation of impurities of formula (VIII) and/or (IX) ([2]; HPLC analysis, any of the conditions used, up to 90 days, e.g. 40° C./75% RH and 25° C./60% RH): has not shown the formation
increase in the content of impurities of formula (VI), (VII), (VIII) or (IX) over time ([2]; after 90 days under various temperature and humidity conditions): did not show any increase
stability of micronized sample on storage ([2]; micronized, maintained for 3 months at 4° C.): completely unaltered
impurities content of formula (VI) and/or (VII) ([2]; stability studies up to 90 days, e.g. 40° C. with 75% relative humidity and 25° C. with 60% relative humidity, batch samples and micronized samples): less than 0.10 % (HPLC Area %)
Structure (SMILES): CC(C)C(=O)Oc1ccc(CO)cc1[C@H](CCN(C(C)C)C(C)C)c1ccccc1 [Fesoterodine fumarate, (R)-2-(3-diisopropylamino-1-phenylpropyl)-4-(hydroxymethyl)phenol isobutyrate]
impurity of formula (VI) generated over time [1]: > 1%
